From patent publication US20220411782A1, “PHAGE COMPOSITIONS COMPRISING CRISPR-CAS SYSTEMS AND METHODS OF USE THEREOF” (priority 2019, published 2022)
Where a name gives a salt, the structure may show the parent alone.

Tested on: E. coli strain LFP 527
Assay: Mouse UTI model, pooled CFU results of Examples 7 and 8 (Example 9)
Format: in vivo, Escherichia coli in mice (Mus musculus)
Details: for # samples <LOD / Mean log CFU/g: ciprofloxacin IV 5 mg/kg; for Delta from LR: ciprofloxacin IV compared with intravenous LR
Protocol: The crPhage cocktail was a mixture of phages p0033L-10 (ATCC No. PTA-126316), p004k-5 (ATCC No. PTA-126319), and p0071-16 (ATCC No. PTA-126320) at concentrations of 2×10^11 plaque forming units (PFU)/mL/phage (“high”), 2×10^9 PFU/mL/phage (“medium”), or 2×10^7 PFU/mL/phage (“low”). A 50 μl dose thus provided 1×10^10 PFU/phage (“high”), 1×10^8 PFU/phage (“medium”), or 1×10^6 PFU/phage (“low”). Lactated Ringer's (LR) solution served as a negative control and ciprofloxacin (Cipro) served as a positive control.
Female C3H/HeN mice were infected with E. coli strain LFP 527 via intraurethral (IU) instillation. Beginning 48 hours after infection, a test article of phage cocktail containing p0033L-10, p004k-5, and p0071-16 was administered at time zero and every 12 hours for 48 hours (for a total of 5 doses). Phage cocktail with a range of phage concentrations (Table 16) or vehicle was delivered either intravenously (IV) or by IU instillation into the bladder. The phage cocktails were prepared using LR.

**Q.** What does the source list for O=C(O)c1cn(C2CC2)c2cc(N3CCNCC3)c(F)cc2c1=O [ciprofloxacin, Ciprofloxacin hydrochloride]?
**A.** # samples <LOD (Bladder, 54 hours): 0; Mean log CFU/g (Bladder, 54 hours): 4.96 log CFU/g; Delta from LR (Bladder, 54 hours): −1.55 (n.s.) log CFU/g; # samples <LOD (Bladder, 102 hours): 1; Mean log CFU/g (Bladder, 102 hours): 3.16 log CFU/g; Delta from LR (Bladder, 102 hours): −2.23 (p = 0.0033) log CFU/g; # samples <LOD (Kidney, 54 hours): 0; Mean log CFU/g (Kidney, 54 hours): 3.47 log CFU/g; Delta from LR (Kidney, 54 hours): −1.66 (n.s.) log CFU/g; # samples <LOD (Kidney, 102 hours): 3; Mean log CFU/g (Kidney, 102 hours): 2.03 log CFU/g; Delta from LR (Kidney, 102 hours): −3.11 (p <0.0001) log CFU/g
